Experimental findings from US8889714B2, “3,4-substituted piperidine derivatives as renin inhibitors” (Actelion Pharmaceuticals Ltd., priority 2008, dated 2014) are described below.

The target of one assay is T1, Human recombinant renin (Homo sapiens, UniProt P00797).
T1 construct: purchased Proteos
T1 sequence (P00797 67-406): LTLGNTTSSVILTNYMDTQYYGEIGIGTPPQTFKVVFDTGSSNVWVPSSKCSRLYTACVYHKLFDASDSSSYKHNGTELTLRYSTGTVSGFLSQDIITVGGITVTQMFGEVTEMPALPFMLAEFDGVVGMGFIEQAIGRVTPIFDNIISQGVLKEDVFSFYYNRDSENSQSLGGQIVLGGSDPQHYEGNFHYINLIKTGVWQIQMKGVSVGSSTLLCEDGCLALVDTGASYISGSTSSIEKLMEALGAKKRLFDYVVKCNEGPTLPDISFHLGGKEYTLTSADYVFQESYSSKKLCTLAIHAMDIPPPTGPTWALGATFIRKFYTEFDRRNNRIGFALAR
Nature of the assay: Inhibition of human recombinant renin (buffer). Type of assay: biochemical. As to conditions: 100 pM renin, 50 mM MOPS pH 7.4, 37° C., 3 hours; read-out: Human Renin IC50 (buffer). As to the method: Fluorescence is measured at times 0 and 3 hours with a SpectraMax Gemini EM reader set at an excitation wavelength of 328 nm and at an emission wavelength of 388 nm. Background fluorescence at t=0 is subtracted from the measurement at t=3 hours. Inhibitory activity of the compounds is expressed as IC50.

Assay [1] has as its target T2, recombinant renin in human plasma (Homo sapiens, UniProt P00797).
T2 construct: purchased Proteos
T2 sequence (P00797 67-406): T1 sequence (P00797 67-406)
In words: Inhibition of renin in human plasma. It counts as biochemical. As to conditions: human EDTA plasma, 1 nM recombinant renin added, 37° C., 1 hour; read-out: Human Renin IC50 (plasma). As to the method: Human EDTA-collected plasma is rapidly thawed in warm water and centrifuged at 2900 g for 15 minutes at 4° C. The supernatant is collected and recombinant renin (Proteos) is added at a final concentration of 1 nM. […] The plate is incubated at 37° C. for 1 hour. […] Background fluorescence at t=0 is subtracted from the measurement at t=1 hour. Inhibitory activity of the compounds is expressed as IC50.

As for `Cn1ccc([C@@H]2CCNC[C@H]2C(=O)N(Cc2cn(Cc3cccc(F)c3)c3cccc(Br)c23)C2CC2)cc1=O` (relative stereo) [Example 73, trans-N-({4-Bromo-1-[(3-fluorophenyl)methyl]-1H-indol-3-yl}methyl)-N-cyclopropyl-4-(1-methyl-2-oxo-1,2-dihydro-4-pyridinyl)-3-piperidinecarboxamide], the IC50 at Human recombinant renin is < 0.06 nM; in assay [1] it was 0.5 nM.
For `Cn1ccc([C@@H]2CCNC[C@H]2C(=O)N(Cc2c[nH]c3cccc(F)c23)C2CC2)cc1=O` (relative stereo) [Example 75, trans-N-Cyclopropyl-N-[(4-fluoro-1H-indol-3-yl)methyl]-4-(1-methyl-2-oxo-1,2-dihydro-4-pyridinyl)-3-piperidinecarboxamide], in that order: 12.7 nM and 8.4 nM.
Turning to `Cn1ccc([C@@H]2CCNC[C@H]2C(=O)N(Cc2cn(Cc3ccncc3)c3cccc(F)c23)C2CC2)cc1=O` (relative stereo) [Example 77, trans-N-Cyclopropyl-N-{[4-fluoro-1-(4-pyridinylmethyl)-1H-indol-3-yl]methyl}-4-(1-methyl-2-oxo-1,2-dihydro-4-pyridinyl)-3-piperidinecarboxamide], the concentration for half-maximal inhibition (IC50) is 0.2 nM at Human recombinant renin and 0.5 nM in assay [1].
For `COCCCn1cc(CN(C(=O)[C@@H]2CNCC[C@H]2c2ccn(C)c(=O)c2)C2CC2)c(=O)n(CCCOC)c1=O` (relative stereo) [Example 79, trans-N-({1,3-Bis[3-(methyloxy)propyl]-2,4-dioxo-1,2,3,4-tetrahydro-5-pyrimidinyl}methyl)-N-cyclopropyl-4-(1-methyl-2-oxo-1,2-dihydro-4-pyridinyl)-3-piperidinecarboxamide], in that order: 58 nM and 75 nM.
With `COCCCc1ccc(SC)c(CN(C(=O)[C@H]2CNCC[C@@H]2c2ccn(C)c(=O)c2)C2CC2)c1` (relative stereo) [Example 84, trans-N-Cyclopropyl-4-(1-methyl-2-oxo-1,2-dihydro-4-pyridinyl)-N-{[5-[3-(methyloxy)propyl]-2-(methylthio)phenyl]methyl}-3-piperidinecarboxamide], the values for the IC50 (at Human recombinant renin; in assay [1]) were 4.7 nM and 12.3 nM, respectively.
For `COCCCc1cc(CN(C(=O)[C@H]2CNCC[C@@H]2c2ccn(C)c(=O)c2)C2CC2)cc(Br)c1C` (relative stereo) [Example 85, trans-N-({3-Bromo-4-methyl-5-[3-(methyloxy)propyl]phenyl}methyl)-N-cyclopropyl-4-(1-methyl-2-oxo-1,2-dihydro-4-pyridinyl)-3-piperidinecarboxamide], in that order: 0.9 nM and 1.3 nM.
For `COCCCc1cc(CCCOC)c(Cl)c(CN(C(=O)[C@H]2CNCC[C@@H]2c2ccn(C)c(=O)c2)C2CC2)c1` (relative stereo) [Example 89, trans-N-[2-Chloro-3,5-bis(3-methoxypropyl)benzyl]-N-cyclopropyl-4-(1-methyl-2-oxo-1,2-dihydro-4-pyridinyl)-3-piperidinecarboxamide], the half-inhibitory concentration (IC50) was determined as 0.2 nM on Human recombinant renin and 0.5 nM in assay [1].
Taken in the same sequence, the figures for `Cc1c(Br)cc(CN(C(=O)[C@@H]2CNCC[C@H]2c2ccn(C)c(=O)c2)C2CC2)cc1CCCOC(F)F` (relative stereo) [Example 103, trans-N-{3-Bromo-5-[3-(difluoromethoxy)propyl]-4-methylbenzyl}-N-cyclopropyl-4-(1-methyl-2-oxo-1,2-dihydro-4-pyridinyl)-3-piperidinecarboxamide] were 0.3 nM and 1.4 nM.
For `Cc1cc(Cc2ccccc2)cc(CN(C(=O)[C@@H]2CNCC[C@H]2c2ccn(C)c(=O)c2)C2CC2)c1` (relative stereo) [Example 104, trans-N-(3-Benzyl-5-methylbenzyl)-N-cyclopropyl-4-(1-methyl-2-oxo-1,2-dihydro-4-pyridinyl)-3-piperidinecarboxamide], in that order: 7.5 nM and 21 nM.
Taken in the same sequence, the figures for `COCCc1ccc(Cl)c(CN(C(=O)[C@H]2CNCC[C@]2(OC)c2ccn(C)c(=O)c2)C2CC2)c1` (relative stereo) [Example 109] were 1.3 nM and 3.2 nM.
For the molecule `COCCCc1ccc2c(c1)C(N(C(=O)[C@H]1CNCCC1c1ccn(C)c(=O)c1)C1CC1)CCC2` (single isomer, unassigned) [Example 100 Diastereomer A, trans-N-Cyclopropyl-N-[7-(3-methoxypropyl)-1,2,3,4-tetrahydro-1-naphthalenyl]-4-(1-methyl-2-oxo-1,2-dihydro-4-pyridinyl)-3-piperidinecarboxamide], the IC50 on Human recombinant renin stood at 0.3 nM; in assay [1], 1.2 nM.
Taken in the same sequence, the figures for `COCCCc1ccc2c(c1)C(N(C(=O)[C@H]1CNCCC1c1ccn(C)c(=O)c1)C1CC1)CCC2` (single isomer, unassigned) [Example 100 Diastereomer B, trans-N-Cyclopropyl-N-[7-(3-methoxypropyl)-1,2,3,4-tetrahydro-1-naphthalenyl]-4-(1-methyl-2-oxo-1,2-dihydro-4-pyridinyl)-3-piperidinecarboxamide] were 3.6 nM and 16.2 nM.
In the case of `Cn1ccc(C2CCNC[C@@H]2C(=O)N(Cc2cc(CCC#N)cc(Cl)c2Cl)C2CC2)cc1=O` (stereo in doubt) [Example 30, trans-N-Cyclopropyl-N-{[2,3-dichloro-5-(2-cyanoethyl)phenyl]methyl}-4-(1-methyl-2-oxo-1,2-dihydro-4-pyridinyl)-3-piperidinecarboxamide], the figures for the IC50 (at Human recombinant renin; in assay [1]) were 8.4 nM and 17 nM, respectively.

One may read the IC50 as the concentration needed to halve the response being measured.
